# Test system: panel of experts in the sensory evaluation of foods and beverages
# Assay: Sensory evaluation of sweetness linger and taste characteristics by expert panel
# Type: in vivo
# Design: key: 0=no sweetness linger; 1=very slight sweetness linger; 2=slight sweetness linger; 3=moderate sweetness linger; 4=moderately high sweetness linger; 5=high sweetness linger
substance,measurement,setting,value
rebaudioside A,sweetness linger,"Example Set G: 400 ppm REBA in citric acid/potassium citrate composition equivalent to diet lemon-lime beverage (sugar control 8 g in 100 ml citrate buffer), scale 0-5, sweetness 3-4 min after water rinse",5
same,sweetness linger,"Example Set H: REBA (500 ppm; H41 360 ppm) in carbon-treated water, phosphoric acid (75%) to pH 2.4-2.5 (sugar control 10 g in 100 ml), scale 0-5",5

# — patent publication US9125429B2, “High-potency sweetener composition with fatty acid and compositions sweetened therewith” (THE COCA-COLA COMPANY, priority 2005, dated 2015)
